# Results taken from patent US20070166774A1, “Functional immunoassay” (priority 2006, published 2007).
# Tested on: antibody (anti-gadolinium-DTPA)
# Test: Immunoassay of gadolinium DTPA, standard curve (HRP-conjugate, microtiter plate)
# Format: binding, rabbit
# Experimental: White New Zealand rabbits were injected subcutaneously with 1 mg of antigen (1 mg/ml) in multiple sites on the rabbit's back according to the schedule in Table 2. The initial injection was prepared in Freund's complete adjuvant. All other injections were prepared in Freund's incomplete adjuvant. Coating polystyrene microtiter plates. Microtiter strips were coated with 200 ul of 10 ug/ml antibody solution diluted in 0.1 M carbonate buffer pH 9 and incubated overnight at room temperature. The coated plates were blocked with a phosphate buffered saline, pH 7.4 solution containing bovine serum (5 mg/ml) and dextrose 20 mg/ml) for 30 minutes, blotted dry and stored at 4° C. until used. All plates were used within 5 days of preparation. In a typical preparation the coating antibody was a goat anti-rabbit serum. HRP-conjugates. HRP-conjugates prepared as described in Example 11 were diluted between 1 to 100 and 1 to 1000 into phosphate buffered saline, pH 7.4 buffer containing bovine albumin (1 mg/ml). General immunoassay protocols for analytes were performed as follows. 100 μl of standard or serum sample was pipeted into appropriate wells in duplicate followed by 100 μl of antibody. To each well was added 200 μl of HRP-conjugate. After a 60 minute incubation at room temperature the wells were aspirated and washed three times with phosphate buffered saline, pH 7.4 containing (0.1% serum albumin and 0.01% Tween 20. To each well was added 200 ul of substrate solution and incubated for 30 minutes at room temperature. The development of color was stopped by the addition of 50 μl of stop solution. The wells were read using a microtiter plate reader. Standard curve data for gadolinium DTPA is shown in Table 3. Standard values were chosen specifically for this assay as shown in Table 3.
compound,measurement,setting,value
"O=C([O-])CN(CCN(CC(=O)[O-])CC(=O)[O-])CCN(CC(=O)[O-])CC(=O)[O-].[Gd+3] [Gadolinium DTPA, gadolinium DTPA]","Optical density, 450 nm",Gadolinium DTPA concentration 1 × 10^−2 M,0.29
same,"Optical density, 450 nm",Gadolinium DTPA concentration 1 × 10^−3 M,0.42
same,"Optical density, 450 nm",Gadolinium DTPA concentration 1 × 10^−4 M,0.48
same,"Optical density, 450 nm",Gadolinium DTPA concentration 1 × 10^−5 M,0.57
same,"Optical density, 450 nm",Gadolinium DTPA concentration 1 × 10^−6 M,0.58
same,"Optical density, 450 nm",Gadolinium DTPA concentration 5 × 10^−5 M,0.55
same,"Optical density, 450 nm",Gadolinium DTPA concentration 5 × 10^−6 M,0.61
